Reference: PubChem BioAssay AID1745844 (Carcinogenic Potency Database (CPDB), 2022)
The source made the active and inactive calls. How the calls were made is not given here.

Test system: rodent lifetime carcinogenesis bioassay, tumor incidence TD50
Test: carcinogenic potency in animals, long-term in vivo studies, CPDB compilation (AID 1745844)

## [O-]/[N+](=N\O)c1ccccc1
mouse, strain B6C3F1, females, in feed, site: Harderian gland, lesion: adenoma, NOS, dosed 78 weeks, study length 95 weeks
  TD50: 1270 mg/kg/day
mouse, strain B6C3F1, females, in feed, site: Zymbal's gland, lesion: sebaceous adenocarcinoma + squamous-cell carcinoma, dosed 78 weeks, study length 95 weeks
  TD50: 3930 mg/kg/day
mouse, strain B6C3F1, females, in feed, site: all sites + Harderian gland + liver + Zymbal's gland, lesion: hemangioma + hemangiosarcoma + adenoma, NOS + hepatocellular adenoma + hepatocellular carcinoma + sebaceous adenocarcinoma + squamou, dosed 78 weeks, study length 95 weeks
  TD50: 253 mg/kg/day
mouse, strain B6C3F1, females, in feed, site: all sites, lesion: hemangioma + hemangiosarcoma, dosed 78 weeks, study length 95 weeks
  TD50: 419 mg/kg/day
mouse, strain B6C3F1, females, in feed, site: all sites, lesion: hemangiosarcoma, dosed 78 weeks, study length 95 weeks
  TD50: 1330 mg/kg/day
mouse, strain B6C3F1, females, in feed, site: any site (literature study), lesion: several types, types named in the paper, dosed 78 weeks, study length 95 weeks
  TD50: 211 mg/kg/day
mouse, strain B6C3F1, females, in feed, site: liver, lesion: hepatocellular adenoma + hepatocellular carcinoma + neoplastic nodule, dosed 78 weeks, study length 95 weeks
  TD50: 413 mg/kg/day
mouse, strain B6C3F1, females, in feed, site: liver, lesion: hepatocellular adenoma + hepatocellular carcinoma, dosed 78 weeks, study length 95 weeks
  TD50: 413 mg/kg/day
mouse, strain B6C3F1, females, in feed, site: liver, lesion: hepatocellular carcinoma, dosed 78 weeks, study length 95 weeks
  TD50: 564 mg/kg/day
mouse, strain B6C3F1, females, in feed, site: lung, lesion: alveolar/bronchiolar adenoma + alveolar/bronchiolar carcinoma, dosed 78 weeks, study length 95 weeks
  TD50: 798 mg/kg/day
mouse, strain B6C3F1, males, in feed, site: Harderian gland, lesion: adenoma, NOS, dosed 78 weeks, study length 95 weeks
  TD50: 1040 mg/kg/day
mouse, strain B6C3F1, males, in feed, site: all sites, lesion: hemangiosarcoma, dosed 78 weeks, study length 95 weeks
  TD50: 1000 mg/kg/day
mouse, strain B6C3F1, males, in feed, site: any site (literature study), lesion: several types, types named in the paper, dosed 78 weeks, study length 95 weeks
  TD50: 252 mg/kg/day
mouse, strain B6C3F1, males, in feed, site: liver, lesion: hepatocellular adenoma + hepatocellular carcinoma + neoplastic nodule, dosed 78 weeks, study length 95 weeks
  TD50: 5450 mg/kg/day
mouse, strain B6C3F1, males, in feed, site: lung, lesion: alveolar/bronchiolar adenoma + alveolar/bronchiolar carcinoma, dosed 78 weeks, study length 95 weeks
  TD50: 2390 mg/kg/day
rat, strain Fischer 344, females, in feed, site: Zymbal's gland, lesion: ceruminous carcinoma + squamous-cell carcinoma, dosed 78 weeks, study length 106 weeks
  TD50: 171 mg/kg/day
rat, strain Fischer 344, females, in feed, site: all sites + liver + stomach + Zymbal's gland, lesion: hemangiosarcoma + hepatocellular carcinoma + neoplastic nodule + squamous-cell carcinoma + squamous-cell papilloma + ceruminous ca, dosed 78 weeks, study length 106 weeks
  TD50: 14.1 mg/kg/day
rat, strain Fischer 344, females, in feed, site: all sites, lesion: hemangiosarcoma, dosed 78 weeks, study length 106 weeks
  TD50: 17.4 mg/kg/day
rat, strain Fischer 344, females, in feed, site: any site (literature study), lesion: several types, types named in the paper, dosed 78 weeks, study length 106 weeks
  TD50: 11.2 mg/kg/day
rat, strain Fischer 344, females, in feed, site: liver, lesion: hepatocellular adenoma + hepatocellular carcinoma + neoplastic nodule, dosed 78 weeks, study length 106 weeks
  TD50: 17.7 mg/kg/day
rat, strain Fischer 344, females, in feed, site: liver, lesion: hepatocellular carcinoma + neoplastic nodule, dosed 78 weeks, study length 106 weeks
  TD50: 17.7 mg/kg/day
rat, strain Fischer 344, females, in feed, site: liver, lesion: hepatocellular carcinoma, dosed 78 weeks, study length 106 weeks
  TD50: 20.1 mg/kg/day
rat, strain Fischer 344, females, in feed, site: stomach, lesion: squamous-cell carcinoma + squamous-cell papilloma, dosed 78 weeks, study length 106 weeks
  TD50: 27.8 mg/kg/day
rat, strain Fischer 344, females, in feed, site: stomach, lesion: squamous-cell carcinoma, dosed 78 weeks, study length 106 weeks
  TD50: 31.3 mg/kg/day
rat, strain Fischer 344, males, in feed, site: all sites + liver + stomach, lesion: hemangiosarcoma + hepatocellular carcinoma + neoplastic nodule + squamous-cell carcinoma + squamous-cell papilloma, dosed 78 weeks, study length 105 weeks
  TD50: 5.33 mg/kg/day
rat, strain Fischer 344, males, in feed, site: all sites, lesion: hemangiosarcoma, dosed 78 weeks, study length 105 weeks
  TD50: 5.49 mg/kg/day
rat, strain Fischer 344, males, in feed, site: any site (literature study), lesion: several types, types named in the paper, dosed 78 weeks, study length 105 weeks
  TD50: 8.85 mg/kg/day
rat, strain Fischer 344, males, in feed, site: body cavities, lesion: mesothelioma, NOS + mesothelioma, dosed 78 weeks, study length 105 weeks
  TD50: 139 mg/kg/day
rat, strain Fischer 344, males, in feed, site: liver, lesion: hepatocellular adenoma + hepatocellular carcinoma + neoplastic nodule, dosed 78 weeks, study length 105 weeks
  TD50: 9.28 mg/kg/day
rat, strain Fischer 344, males, in feed, site: liver, lesion: hepatocellular carcinoma + neoplastic nodule, dosed 78 weeks, study length 105 weeks
  TD50: 9.28 mg/kg/day
rat, strain Fischer 344, males, in feed, site: liver, lesion: hepatocellular carcinoma, dosed 78 weeks, study length 105 weeks
  TD50: 30.7 mg/kg/day
rat, strain Fischer 344, males, in feed, site: stomach, lesion: squamous-cell carcinoma + squamous-cell papilloma, dosed 78 weeks, study length 105 weeks
  TD50: 6.28 mg/kg/day
rat, strain Fischer 344, males, in feed, site: stomach, lesion: squamous-cell carcinoma, dosed 78 weeks, study length 105 weeks
  TD50: 6.94 mg/kg/day
rat, strain Fischer 344, males, in feed, site: subcutaneous tissue, lesion: fibroma, dosed 78 weeks, study length 105 weeks
  TD50: 10.5 mg/kg/day

## CCCC[N+](=O)[O-]
rat, strain Fischer 344, males, by gavage, site: liver, lesion: one or several types, types not named, dosed 50 weeks, study length 83 weeks
  carcinogen call: negative (inactive)

## COc1ccccc1N1CCN(CCCNc2cc(=O)n(C)c(=O)n2C)CC1
rat, strain Slc-Wistar, females, by gavage, site: liver, lesion: one or several types, types not named, dosed 52 weeks, study length 52 weeks
  carcinogen call: negative (inactive)
rat, strain Slc-Wistar, males, by gavage, site: liver, lesion: one or several types, types not named, dosed 52 weeks, study length 52 weeks
  carcinogen call: negative (inactive)

## Nc1ccc2c(n1)[nH]c1ccccc12
mouse, strain CDF1, females, in feed, site: blood vessels, lesion: hemangioendothelial sarcoma, dosed 97 weeks, study length 97 weeks
  TD50: 381 mg/kg/day
mouse, strain CDF1, females, in feed, site: liver, lesion: hepatocellular carcinoma, dosed 97 weeks, study length 97 weeks
  TD50: 44.7 mg/kg/day
mouse, strain CDF1, females, in feed, site: liver, lesion: several types, types named in the paper, dosed 97 weeks, study length 97 weeks
  TD50: 35.6 mg/kg/day
mouse, strain CDF1, females, in feed, site: lung, lesion: adenoma, dosed 97 weeks, study length 97 weeks
  TD50: 795 mg/kg/day
mouse, strain CDF1, females, in feed, site: lung, lesion: several types, types named in the paper, dosed 97 weeks, study length 97 weeks
  TD50: 1150 mg/kg/day
mouse, strain CDF1, males, in feed, site: blood vessels, lesion: hemangioendothelial sarcoma, dosed 97 weeks, study length 97 weeks
  TD50: 103 mg/kg/day
mouse, strain CDF1, males, in feed, site: blood vessels, lesion: several types, types named in the paper, dosed 97 weeks, study length 97 weeks
  TD50: 82.6 mg/kg/day
mouse, strain CDF1, males, in feed, site: liver, lesion: hepatocellular adenoma, dosed 97 weeks, study length 97 weeks
  TD50: 352 mg/kg/day
mouse, strain CDF1, males, in feed, site: liver, lesion: hepatocellular carcinoma, dosed 97 weeks, study length 97 weeks
  TD50: 225 mg/kg/day
mouse, strain CDF1, males, in feed, site: liver, lesion: several types, types named in the paper, dosed 97 weeks, study length 97 weeks
  TD50: 122 mg/kg/day

## O=NN1CCOC1
hamster, strain Syrian Golden, females, by gavage, site: forestomach, lesion: several types, types named in the paper, dosed 30 weeks, study length 104 weeks
  TD50: 2.61 mg/kg/day
hamster, strain Syrian Golden, males, by gavage, site: any site (literature study), lesion: several types, types named in the paper, dosed 35 weeks, study length 65 weeks
  TD50: 0.267 mg/kg/day
hamster, strain Syrian Golden, males, by gavage, site: liver, lesion: cholangiocarcinoma, dosed 35 weeks, study length 65 weeks
  TD50: 0.471 mg/kg/day
hamster, strain Syrian Golden, males, by gavage, site: liver, lesion: hepatocellular adenoma, dosed 35 weeks, study length 65 weeks
  TD50: 0.949 mg/kg/day
hamster, strain Syrian Golden, males, by gavage, site: liver, lesion: hepatocellular carcinoma, dosed 35 weeks, study length 65 weeks
  TD50: 2.63 mg/kg/day
hamster, strain Syrian Golden, males, by gavage, site: lung, lesion: carcinoma, dosed 35 weeks, study length 65 weeks
  TD50: 14.8 mg/kg/day

## CCCOC(=O)c1cc(O)c(O)c(O)c1
mouse, strain B6C3F1, females, in feed, site: liver, lesion: hepatocellular adenoma + hepatocellular carcinoma + neoplastic nodule, dosed 103 weeks, study length 105 weeks
  TD50: 21400 mg/kg/day
mouse, strain B6C3F1, females, in feed, site: liver, lesion: hepatocellular adenoma, dosed 103 weeks, study length 105 weeks
  TD50: 8260 mg/kg/day (inactive)
mouse, strain B6C3F1, females, in feed, site: lung, lesion: alveolar/bronchiolar adenoma + alveolar/bronchiolar carcinoma, dosed 103 weeks, study length 105 weeks
  TD50: 44300 mg/kg/day
mouse, strain B6C3F1, males, in feed, site: all sites, lesion: lymphoma, histiocytic type, dosed 103 weeks, study length 105 weeks
  TD50: 15100 mg/kg/day
mouse, strain B6C3F1, males, in feed, site: all sites, lesion: lymphoma, dosed 103 weeks, study length 105 weeks
  TD50: 6540 mg/kg/day (inactive)
mouse, strain B6C3F1, males, in feed, site: all sites, lesion: malignant lymphoma, dosed 103 weeks, study length 105 weeks
  TD50: 12100 mg/kg/day
mouse, strain B6C3F1, males, in feed, site: any site (literature study), lesion: several types, types named in the paper, dosed 103 weeks, study length 105 weeks
  TD50: 3640 mg/kg/day
mouse, strain B6C3F1, males, in feed, site: lung, lesion: alveolar/bronchiolar adenoma + alveolar/bronchiolar carcinoma, dosed 103 weeks, study length 105 weeks
  TD50: 55600 mg/kg/day
rat, strain F344/DuCrj, males, in feed, site: esophagus, lesion: one or several types, types not named, dosed 52 weeks, study length 52 weeks
  carcinogen call: negative (inactive)
rat, strain F344/DuCrj, males, in feed, site: forestomach, lesion: one or several types, types not named, dosed 52 weeks, study length 52 weeks
  carcinogen call: negative (inactive)
rat, strain F344/DuCrj, males, in feed, site: liver, lesion: one or several types, types not named, dosed 52 weeks, study length 52 weeks
  carcinogen call: negative (inactive)
rat, strain Fischer 344, females, in feed, site: mammary gland, lesion: adenoma, dosed 103 weeks, study length 105 weeks
  TD50: 8080 mg/kg/day (inactive)
rat, strain Fischer 344, males, in feed, site: adrenal gland, lesion: pheochromocytoma + pheochromocytoma, malignant, dosed 103 weeks, study length 105 weeks
  TD50: 613 mg/kg/day
rat, strain Fischer 344, males, in feed, site: adrenal gland, lesion: pheochromocytoma, dosed 103 weeks, study length 105 weeks
  TD50: 613 mg/kg/day
rat, strain Fischer 344, males, in feed, site: pancreatic islets, lesion: islet-cell adenoma + islet-cell carcinoma, dosed 103 weeks, study length 105 weeks
  TD50: 840 mg/kg/day
rat, strain Fischer 344, males, in feed, site: pancreatic islets, lesion: islet-cell adenoma, dosed 103 weeks, study length 105 weeks
  TD50: 749 mg/kg/day (inactive)
rat, strain Fischer 344, males, in feed, site: preputial gland, lesion: adenocarcinoma + adenoma + carcinoma, dosed 103 weeks, study length 105 weeks
  TD50: 1040 mg/kg/day
rat, strain Fischer 344, males, in feed, site: thyroid gland, lesion: follicular-cell adenoma + follicular-cell carcinoma, dosed 103 weeks, study length 105 weeks
  TD50: 6870 mg/kg/day

## FC(F)(F)CCl
rat, strain Alpk:APfSD, females, by gavage, site: uterus, lesion: adenocarcinoma, dosed 52 weeks, study length 125 weeks
  TD50: 160 mg/kg/day
rat, strain Alpk:APfSD, males, by gavage, site: testis, lesion: interstitial-cell tumor, dosed 52 weeks, study length 125 weeks
  TD50: 60 mg/kg/day

## O=C1OC(=O)c2ccccc21
mouse, strain B6C3F1, females, in feed, site: any site (literature study), lesion: several types, types named in the paper, dosed 104 weeks, study length 104 weeks
  carcinogen call: negative (inactive)
mouse, strain B6C3F1, males, in feed, site: any site (literature study), lesion: several types, types named in the paper, dosed 104 weeks, study length 104 weeks
  carcinogen call: negative (inactive)
mouse, strain B6C3F1, males, in feed, site: liver, lesion: hepatocellular adenoma + hepatocellular carcinoma + neoplastic nodule, dosed 104 weeks, study length 104 weeks
  TD50: 7460 mg/kg/day
rat, strain Fischer 344, females, in feed, site: any site (literature study), lesion: several types, types named in the paper, dosed 105 weeks, study length 105 weeks
  TD50: 4500 mg/kg/day
rat, strain Fischer 344, females, in feed, site: lung, lesion: alveolar/bronchiolar adenoma, dosed 105 weeks, study length 105 weeks
  TD50: 6230 mg/kg/day (inactive)
rat, strain Fischer 344, males, in feed, site: any site (literature study), lesion: several types, types named in the paper, dosed 105 weeks, study length 105 weeks
  carcinogen call: negative (inactive)
